Where two headings read alike, the source gives them in different places.
Columns and labels:
[1] = biological target: T1, Azetylcholinesterase des menschlichen Bluts (Homo sapiens, UniProt P22303); assay: Reactivation in vitro of erythrocyte cholinesterase inhibited by organophosphorus compounds (potentiometric titration); format: biochemical; settings: reactivator 1.10^-4 M01/1, 25°C, pH 7,5
T1 construct: Cholinesterase des Grundgerüstes der Erythrozyten des menschlichen Bluts; from tissue; host or cells: human erythrocyte stroma (ghosts)

[2] = Content of the drugs in blood and brain after intramuscular administration (Askew method); format: in vivo, Ratten; settings: rat, im, Ratten; for concentration at 2 h: 2 St., read-out: Konzentration (µg/g) 2 St. (converted); for concentration at 5 min: read-out: Konzentration (µg/g) 5 min; for concentration at 20 min: read-out: Konzentration (µg/g) 20 min (converted); for concentration at 0.5 h: 30 min, read-out: Konzentration (µg/g) 30 min; for concentration at 1 h: I St., read-out: Konzentration (µg/g) I St.; for concentration at 10 min: IO min, read-out: Konzentration (µg/g) IO min (converted)
Description: Mit Hilfe der Methode von Askew (1956) wurde in der Dynamik der Gehalt des erfindungsgemäßen Arzneimittels im Blut und Gehirn der Tiere untersucht. Die Untersuchungen wurden im Vergleich zum bekannten Präparak TMB-4 vorgenommen. Die Geschwindigkeit des Eindringens beider Präparate ins Blut und deren Konzentration wurden bei der-intramuskulären Einführung in Dosen von 20 ..und 50 mg/kg und der Gehirnspiegel - in einer Dosis von 50 mg/kg bestimmt. […]
Es wurde festgestellt, daß die Präparate schnell (nach 5 min) von der Einführungsstelle ins Blut eindringen, dabei wurde unabhängig von der Prüfdosis der Präparate deren Maximalgehalt im Blut 20 min nach der Einführung beobachtet, zwar erhöhte die Vergrößerung der Dosis der Präparate bis 50 mg/kg wesentlich deren Konzentrationsniveau während der ganzen Beobachtungsfrist.
Die im Vergleich zu TMB-4 durchgeführten Untersuchungen haben ergeben, dass während der ersten Stunde der Blutgehalt und das Anwachsen der Konzentrationen beider Präparate gleich waren. […] Die Untersuchungsergebnisse sind in der Tabelle 3 angeführt.
Nach den Ergebnissen der durchgeführten Untersuchungen wurde festgestellt, dass das erfindungsgemässe Arz- neimittel bei der intramuskulären Einführung schnell ins Blut und Gehirn des Tieres eindringt und zum Unterschied von TMB-4 eine längere Zeit im 3lutstrom zirkuliert und von 5 min an bis 4 Stunden Beobachtung im Gehirn in bedeutend grösseren Mengen enthalten ist.

[3] = blood, Blut, Dosis 20 mg/kg intramuskulär
[4] = blood, Blut, Dosis 50 mg/kg intramuskulär
[5] = brain, Gehirn, Dosis 50 mg/kg intramuskulär

T1 sequence (P22303 other isoform, or with tags, fused parts or gaps): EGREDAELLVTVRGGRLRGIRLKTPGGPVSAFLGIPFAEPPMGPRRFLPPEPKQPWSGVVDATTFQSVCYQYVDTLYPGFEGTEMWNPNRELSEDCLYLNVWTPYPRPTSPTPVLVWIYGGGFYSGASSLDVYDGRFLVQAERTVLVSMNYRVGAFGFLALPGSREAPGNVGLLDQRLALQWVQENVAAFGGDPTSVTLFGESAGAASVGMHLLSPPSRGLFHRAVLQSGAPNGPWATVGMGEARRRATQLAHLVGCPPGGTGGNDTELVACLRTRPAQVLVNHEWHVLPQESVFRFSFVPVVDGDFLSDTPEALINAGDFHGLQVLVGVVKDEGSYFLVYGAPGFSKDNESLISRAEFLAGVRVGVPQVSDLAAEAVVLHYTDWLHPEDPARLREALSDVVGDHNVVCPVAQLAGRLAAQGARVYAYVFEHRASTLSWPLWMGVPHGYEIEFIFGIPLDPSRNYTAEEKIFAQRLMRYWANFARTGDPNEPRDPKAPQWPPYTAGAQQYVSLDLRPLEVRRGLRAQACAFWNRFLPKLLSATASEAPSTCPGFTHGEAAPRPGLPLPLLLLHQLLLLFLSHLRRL

ON=Cc1cc[n+](CCC[n+]2ccc(C=NO)cc2)cc1 [TMB-4, Trimethylen-1,3-bis-(4-oxyiminomethylpyridinium)bromid, reference compound]
activity at 100 µM ([1]; 0.5 h, pH 7, inhibited with O,O-Dimethyl-(2,2,2-trichlor-1-oxyäthyl) phosphonat, 0,5 h, read-out: Aktivität der Azetylcholinesterase in % (Reaktivationszeit in Stunden) 0,5): 40%
activity at 100 µM ([1]; 0.5 h, pH 7, inhibited with O,O-Dimethyl-S-(1,2-dikarbäthoxyäthyl)-dithiophosphat, 0,5 h, read-out: Aktivität der Azetylcholinesterase in % (Reaktivationszeit in Stunden) 0,5): 27.4%
activity at 100 µM ([1]; 1 h, pH 7, inhibited with O,O-Dimethyl-(2,2,2-trichlor-1-oxyäthyl) phosphonat, 1 h, read-out: Aktivität der Azetylcholinesterase in % (Reaktivationszeit in Stunden) 1): 51%
activity at 100 µM ([1]; 1 h, pH 7, inhibited with O,O-Dimethyl-S-(1,2-dikarbäthoxyäthyl)-dithiophosphat, 1 h, read-out: Aktivität der Azetylcholinesterase in % (Reaktivationszeit in Stunden) 1): 43%
activity at 100 µM ([1]; 2 h, pH 7, inhibited with O,O-Dimethyl-(2,2,2-trichlor-1-oxyäthyl) phosphonat, 2 h, read-out: Aktivität der Azetylcholinesterase in % (Reaktivationszeit in Stunden) 2): 64.2%
activity at 100 µM ([1]; 2 h, pH 7, inhibited with O,O-Dimethyl-S-(1,2-dikarbäthoxyäthyl)-dithiophosphat, 2 h, read-out: Aktivität der Azetylcholinesterase in % (Reaktivationszeit in Stunden) 2): 52.9%
concentration at 2 h [2, 3]: 0.41 µg/g
concentration at 5 min [2, 3]: 3.6 µg/g
concentration at 20 min [2, 3]: 4.85 µg/g
concentration at 0.5 h [2, 3]: 4.35 µg/g
concentration at 1 h [2, 3]: 2.75 µg/g
concentration at 10 min [2, 3]: 4.42 µg/g
concentration at 2 h [2, 4]: 2.42 µg/g
concentration at 3 h ([2]; blood, Blut, Dosis 50 mg/kg intramuskulär, 3 St., read-out: Konzentration (µg/g) 3 St.): 1.95 µg/g
concentration at 5 min [2, 4]: 16.6 µg/g
concentration at 20 min [2, 4]: 18.4 µg/g
concentration at 0.5 h [2, 4]: 15.1 µg/g
concentration at 1 h [2, 4]: 11.5 µg/g
concentration at 10 min [2, 4]: 21.1 µg/g
concentration at 2 h [2, 5]: 0.34 µg/g
concentration at 5 min [2, 5]: 0.86 µg/g
concentration at 20 min [2, 5]: 2.32 µg/g
concentration at 0.5 h [2, 5]: 2.28 µg/g
concentration at 1 h [2, 5]: 1.5 µg/g
concentration at 10 min [2, 5]: 0.98 µg/g
